Laboratory results as given in PubChem BioAssay AID180 (DTP/NCI, 2004).
“And” between values parts separate entries of the source, which are not always exact repeats. Equal values may be shown once.

System: BDF1 mice, Adenocarcinoma 755 s.c., tumor weight T/C
Test: NCI In Vivo Anticancer Drug Screen. Data for tumor model Adenocarcinoma 755 (subcutaneous) in B6D2F1 (BDF1) mice
Conditions: endpoint: mean tumor weight, higher = larger tumour
Method in brief: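 In vivo antitumor screen on a transplantable tumor line. Result equals the measure in compound-treated animals divided by the same measure in vehicle controls.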

[1] = dose: 15.0 mg/kg/injection, schedule: Q01DX011 (ip), vehicle: methylcellulose (MC)
[2] = dose: 10.0 mg/kg/injection, schedule: Q01DX011 (ip), vehicle: methylcellulose (MC)
[3] = dose: 20.0 mg/kg/injection, schedule: Q01DX011 (ip), vehicle: methylcellulose (MC)
[4] = dose: 25.0 mg/kg/injection, schedule: Q01DX011 (ip), vehicle: saline

**Q.** For Brc1ncc2[nH]cnc2n1, which T/C (dose: 25.0 mg/kg/injection, schedule: Q01DX011 (ip), vehicle: methylcellulose (MC)) is on record?
**A.** 79 % of control

**Q.** What about the T/C (dose: 75.0 mg/kg/injection, schedule: Q01DX011 (ip), vehicle: methylcellulose (MC)) of the same compound?
**A.** 75 % of control

**Q.** With Nc1nc(I)c2[nH]cnc2n1 as the compound, how does the T/C [1] read?
**A.** 52 % of control

**Q.** And the T/C (dose: 30.0 mg/kg/injection, schedule: Q01DX011 (ip), vehicle: methylcellulose (MC))?
**A.** 109 % of control

**Q.** And the T/C (dose: 60.0 mg/kg/injection, schedule: Q01DX011 (ip), vehicle: methylcellulose (MC))?
**A.** 41 % of control

**Q.** What about the T/C (dose: 120.0 mg/kg/injection, schedule: Q01DX011 (ip), vehicle: methylcellulose (MC)) of the same compound?
**A.** 44 % of control

**Q.** CSc1nc(N)nc2c1n(C)c[n+]2C was tested. Which T/C (dose: 30.0 mg/kg/injection, schedule: Q01DX011 (ip), vehicle: carboxymethylcellulose (CMC)) did it give?
**A.** 97 % of control

**Q.** What about the T/C (dose: 60.0 mg/kg/injection, schedule: Q01DX011 (ip), vehicle: carboxymethylcellulose (CMC)) of the same compound?
**A.** 99 % of control

**Q.** And the T/C (dose: 120.0 mg/kg/injection, schedule: Q01DX011 (ip), vehicle: carboxymethylcellulose (CMC))?
**A.** 66 % of control

**Q.** What about the T/C (dose: 240.0 mg/kg/injection, schedule: Q01DX011 (ip), vehicle: carboxymethylcellulose (CMC)) of the same compound?
**A.** 89 % of control

**Q.** N#CSc1ncnc2nc[nH]c12 was tested. Which T/C (dose: 0.4 mg/kg/injection, schedule: Q01DX011 (ip), vehicle: water) did it give?
**A.** 67 % of control

**Q.** And the T/C (dose: 1.0 mg/kg/injection, schedule: Q01DX011 (ip), vehicle: alkali diluted with saline)?
**A.** 20 % of control and 33 % of control

**Q.** And the T/C (dose: 1.0 mg/kg/injection, schedule: Q01DX011 (ip), vehicle: saline)?
**A.** 10 % of control

**Q.** What about the T/C (dose: 1.3 mg/kg/injection, schedule: Q01DX011 (ip), vehicle: water) of the same compound?
**A.** 8 % of control

**Q.** What about the T/C (dose: 1.75 mg/kg/injection, schedule: Q01DX011 (ip), vehicle: water) of the same compound?
**A.** 4 % of control

**Q.** What about the T/C (dose: 2.0 mg/kg/injection, schedule: Q01DX011 (ip), vehicle: alkali diluted with saline) of the same compound?
**A.** 1 % of control and 11 % of control

**Q.** What about the T/C (dose: 2.0 mg/kg/injection, schedule: Q01DX011 (ip), vehicle: saline) of the same compound?
**A.** 1 % of control

**Q.** And the T/C (dose: 4.0 mg/kg/injection, schedule: Q01DX011 (ip), vehicle: alkali diluted with saline)?
**A.** 2 % of control

**Q.** What about the T/C (dose: 4.0 mg/kg/injection, schedule: Q01DX011 (ip), vehicle: saline) of the same compound?
**A.** 1 % of control

**Q.** And the T/C (dose: 7.0 mg/kg/injection, schedule: Q01DX011 (ip), vehicle: water)?
**A.** 1 % of control

**Q.** And the T/C (dose: 8.0 mg/kg/injection, schedule: Q01DX011 (ip), vehicle: saline)?
**A.** 1 % of control

**Q.** For CCOC1CCCC(n2cnc3c(=S)nc[nH]c32)O1 (stereo not drawn), which T/C (dose: 4.69 mg/kg/injection, schedule: Q01DX011 (ip), vehicle: methylcellulose (MC)) is on record?
**A.** 29 % of control

**Q.** And the T/C (dose: 9.38 mg/kg/injection, schedule: Q01DX011 (ip), vehicle: methylcellulose (MC))?
**A.** 2 % of control

**Q.** Which results are given for CC(=O)N[C@H]1CC[C@H]2[C@@H]3CCC4=CC(=O)CC[C@]4(C)[C@H]3CC[C@]12C?
**A.** T/C (dose: 5.0 mg/kg/injection, schedule: Q01DX011 (sc), vehicle: steriod suspending solution): 99 % of control; T/C (dose: 50.0 mg/kg/injection, schedule: Q01DX011 (sc), vehicle: steriod suspending solution): 111 % of control; T/C (dose: 100.0 mg/kg/injection, schedule: Q01DX011 (sc), vehicle: steriod suspending solution): 89 % of control

**Q.** With CC(C)(COS(C)(=O)=O)C(=O)N1CCN(C(=O)C(C)(C)COS(C)(=O)=O)CC1 as the compound, how does the T/C (dose: 2.4 mg/kg/injection, schedule: Q01DX011 (ip), vehicle: carboxymethylcellulose (CMC)) read?
**A.** 162 % of control

**Q.** And the T/C (dose: 4.7 mg/kg/injection, schedule: Q01DX011 (ip), vehicle: carboxymethylcellulose (CMC))?
**A.** 82 % of control

**Q.** What about the T/C (dose: 9.4 mg/kg/injection, schedule: Q01DX011 (ip), vehicle: carboxymethylcellulose (CMC)) of the same compound?
**A.** 60 % of control

**Q.** What about the T/C (dose: 18.8 mg/kg/injection, schedule: Q01DX011 (ip), vehicle: carboxymethylcellulose (CMC)) of the same compound?
**A.** 57 % of control

**Q.** Which results are given for CSc1ncc(Br)c(Nc2ccc(Br)cc2)n1?
**A.** T/C [1]: 94 % of control; T/C (dose: 31.0 mg/kg/injection, schedule: Q01DX011 (ip), vehicle: methylcellulose (MC)): 103 % of control; T/C (dose: 62.0 mg/kg/injection, schedule: Q01DX011 (ip), vehicle: methylcellulose (MC)): 123 % of control; T/C (dose: 125.0 mg/kg/injection, schedule: Q01DX011 (ip), vehicle: methylcellulose (MC)): 114 % of control; T/C (dose: 250.0 mg/kg/injection, schedule: Q01DX011 (ip), vehicle: methylcellulose (MC)): 86 % of control

**Q.** What does the source list for Nc1nc(S(N)(=O)=O)nc2nc[nH]c12?
**A.** T/C (dose: 25.0 mg/kg/injection, schedule: Q01DX011 (ip), vehicle: carboxymethylcellulose (CMC)): 57 % of control; T/C (dose: 75.0 mg/kg/injection, schedule: Q01DX011 (ip), vehicle: carboxymethylcellulose (CMC)): 82 % of control; T/C (dose: 225.0 mg/kg/injection, schedule: Q01DX011 (ip), vehicle: carboxymethylcellulose (CMC)): 72 % of control

**Q.** With CSc1nc(C)c(Br)c(Sc2nc(N)nc3nc[nH]c23)n1 as the compound, how does the T/C (dose: 0.3 mg/kg/injection, schedule: Q01DX011 (ip), vehicle: carboxymethylcellulose (CMC)) read?
**A.** 106 % of control

**Q.** And the T/C (dose: 0.7 mg/kg/injection, schedule: Q01DX011 (ip), vehicle: carboxymethylcellulose (CMC))?
**A.** 117 % of control

**Q.** And the T/C (dose: 6.0 mg/kg/injection, schedule: Q01DX011 (ip), vehicle: carboxymethylcellulose (CMC))?
**A.** 42 % of control

**Q.** What about the T/C (dose: 12.0 mg/kg/injection, schedule: Q01DX011 (ip), vehicle: carboxymethylcellulose (CMC)) of the same compound?
**A.** 28 % of control

**Q.** What about the T/C (dose: 24.0 mg/kg/injection, schedule: Q01DX011 (ip), vehicle: carboxymethylcellulose (CMC)) of the same compound?
**A.** 6 % of control

**Q.** With COC1C(OC(=O)/C=C/C=C/C=C/C=C/C(=O)O)CCC2(CO2)C1C1(C)OC1CC=C(C)C (stereo not drawn) as the compound, how does the T/C (dose: 2.5 mg/kg/injection, schedule: Q01DX011 (ip), vehicle: other) read?
**A.** 49 % of control

**Q.** And the T/C (dose: 5.0 mg/kg/injection, schedule: Q01DX011 (ip), vehicle: other)?
**A.** 61 % of control

**Q.** And the T/C (dose: 5.0 mg/kg/injection, schedule: Q01DX011 (ip), vehicle: saline)?
**A.** 78 % of control

**Q.** And the T/C [2]?
**A.** 38 % of control

**Q.** And the T/C (dose: 10.0 mg/kg/injection, schedule: Q01DX011 (ip), vehicle: other)?
**A.** 40 % of control

**Q.** And the T/C (dose: 10.0 mg/kg/injection, schedule: Q01DX011 (ip), vehicle: saline)?
**A.** 94 % of control

**Q.** And the T/C [3]?
**A.** 28 % of control

**Q.** And the T/C (dose: 20.0 mg/kg/injection, schedule: Q01DX011 (ip), vehicle: other)?
**A.** 22 % of control

**Q.** What about the T/C (dose: 20.0 mg/kg/injection, schedule: Q01DX011 (ip), vehicle: saline) of the same compound?
**A.** 49 % of control

**Q.** What about the T/C (dose: 40.0 mg/kg/injection, schedule: Q01DX011 (ip), vehicle: methylcellulose (MC)) of the same compound?
**A.** 24 % of control

**Q.** And the T/C (dose: 40.0 mg/kg/injection, schedule: Q01DX011 (ip), vehicle: other)?
**A.** 18 % of control

**Q.** And the T/C (dose: 40.0 mg/kg/injection, schedule: Q01DX011 (ip), vehicle: saline)?
**A.** 63 % of control

**Q.** What about the T/C (dose: 80.0 mg/kg/injection, schedule: Q01DX011 (ip), vehicle: other) of the same compound?
**A.** 26 % of control

**Q.** What about the T/C (dose: 80.0 mg/kg/injection, schedule: Q01DX011 (ip), vehicle: saline) of the same compound?
**A.** 58 % of control

**Q.** O=C(O)C1CCCN1c1ncnc2nc[nH]c12 (stereo not drawn) was tested. Which T/C [4] did it give?
**A.** 115 % of control

**Q.** What about the T/C (dose: 75.0 mg/kg/injection, schedule: Q01DX011 (ip), vehicle: saline) of the same compound?
**A.** 104 % of control

**Q.** Which results are given for CN(C)c1ccc(/C=C\c2ccnc3ccccc23)cc1?
**A.** T/C (dose: 3.1 mg/kg/injection, schedule: Q01DX011 (ip), vehicle: water): 100 % of control; T/C (dose: 5.0 mg/kg/injection, schedule: Q01DX011 (ip), vehicle: methylcellulose (MC)): 96 % of control; T/C (dose: 6.25 mg/kg/injection, schedule: Q01DX011 (ip), vehicle: water): 97 % of control; T/C [2]: 96 % of control; T/C (dose: 12.5 mg/kg/injection, schedule: Q01DX011 (ip), vehicle: water): 90 % of control; T/C [3]: 86 % of control; T/C (dose: 25.0 mg/kg/injection, schedule: Q01DX011 (ip), vehicle: water): 81 % of control; T/C (dose: 50.0 mg/kg/injection, schedule: Q01DX011 (ip), vehicle: water): 55 % of control; T/C (dose: 100.0 mg/kg/injection, schedule: Q01DX011 (ip), vehicle: water): 64 % of control

**Q.** Which results are given for [OH-].[OH-].[Pd+2].c1ccc(CSc2ncnc3nc[nH]c23)cc1.c1ccc(CSc2ncnc3nc[nH]c23)cc1.c1ccc(CSc2ncnc3nc[nH]c23)cc1.c1ccc(CSc2ncnc3nc[nH]c23)cc1?
**A.** T/C (dose: 3.0 mg/kg/injection, schedule: Q01DX011 (ip), vehicle: saline): 76 % of control; T/C (dose: 6.0 mg/kg/injection, schedule: Q01DX011 (ip), vehicle: saline): 36 % of control; T/C (dose: 12.0 mg/kg/injection, schedule: Q01DX011 (ip), vehicle: saline): 17 % of control; T/C (dose: 12.5 mg/kg/injection, schedule: Q01DX011 (ip), vehicle: saline): 16 % of control; T/C [4]: 1 % of control; T/C (dose: 50.0 mg/kg/injection, schedule: Q01DX011 (ip), vehicle: saline): 1 % of control; T/C (dose: 100.0 mg/kg/injection, schedule: Q01DX011 (ip), vehicle: saline): 1 % of control; T/C (dose: 200.0 mg/kg/injection, schedule: Q01DX011 (ip), vehicle: saline): 1 % of control

**Q.** With Cc1ccc(C(=O)OCC2OC(n3cnc4c(=S)nc(N)[nH]c43)C(OC(=O)c3ccc(C)cc3)C2OC(=O)c2ccc(C)cc2)cc1 (stereo not drawn) as the compound, how does the T/C (dose: 100.0 mg/kg/injection, schedule: Q01DX011 (ip), vehicle: carboxymethylcellulose (CMC)) read?
**A.** 81 % of control

**Q.** And the T/C (dose: 200.0 mg/kg/injection, schedule: Q01DX011 (ip), vehicle: carboxymethylcellulose (CMC))?
**A.** 4 % of control and 12 % of control
